Where two headings read alike, the source gives them in different places. *1 amine or outer side, *2 acyl side, *3 side chain or, on linkers, in order; H or OH if unused. Where a SMILES comes first, the peptide text is derived from it. [ ]: non-standard residue; d: D form. X1 = O=C(C[C@@H](N[*:1])c1ccc(Cl)cc1)[*:2]; β3hPhg = O=C(C[C@@H](N[*:1])c1ccccc1)[*:2]; Nle = CCCC[C@H](N)C(=O)O

The source of these data is paper PMC2905478 (Peptides, 2010).

Test [1] concerns the target T1, hBRS-3 (Homo sapiens, UniProt P32247). Description: biochemical. As to conditions: IC50 (nM) hBRS-3/N417, half-maximal inhibition of binding; 50 pM radioligand, 22 °C, 60 min.
For test [2], the target named is T2, hNMBR (Homo sapiens, UniProt P28336). Description: Stimulation of [3H]IP generation.
T2 sequence (P28336 whole entry): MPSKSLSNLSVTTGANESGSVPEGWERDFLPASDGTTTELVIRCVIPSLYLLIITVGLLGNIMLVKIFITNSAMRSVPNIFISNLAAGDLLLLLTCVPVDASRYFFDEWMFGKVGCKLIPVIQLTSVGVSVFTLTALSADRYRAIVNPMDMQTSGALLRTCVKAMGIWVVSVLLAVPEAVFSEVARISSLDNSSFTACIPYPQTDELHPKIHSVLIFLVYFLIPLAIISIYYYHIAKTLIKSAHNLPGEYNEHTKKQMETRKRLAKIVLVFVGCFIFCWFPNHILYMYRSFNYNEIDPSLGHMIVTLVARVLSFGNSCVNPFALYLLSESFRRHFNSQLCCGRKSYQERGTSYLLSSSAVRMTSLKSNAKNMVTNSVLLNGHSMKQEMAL
Test [3] deals with T2, hNMBR. Description: biochemical.
Test [4] deals with T1, hBRS-3. The conditions noted are these: binding affinities.
Test [5] deals with T1, hBRS-3. As to conditions: for agonist efficacy for [3H]IP generation (full/partial agonist): each of the hBRS-3 containing cells, concentrations up to 10,000 nM; for fold less potent than peptide #1 at activating PLC: range over three hBRS-3 containing cells.
For test [6], the target named is T3, hGRPR (Homo sapiens, UniProt P30550). As to conditions: binding, HuTu-80 cells, native hGRPR.
T3 sequence (P30550 whole entry): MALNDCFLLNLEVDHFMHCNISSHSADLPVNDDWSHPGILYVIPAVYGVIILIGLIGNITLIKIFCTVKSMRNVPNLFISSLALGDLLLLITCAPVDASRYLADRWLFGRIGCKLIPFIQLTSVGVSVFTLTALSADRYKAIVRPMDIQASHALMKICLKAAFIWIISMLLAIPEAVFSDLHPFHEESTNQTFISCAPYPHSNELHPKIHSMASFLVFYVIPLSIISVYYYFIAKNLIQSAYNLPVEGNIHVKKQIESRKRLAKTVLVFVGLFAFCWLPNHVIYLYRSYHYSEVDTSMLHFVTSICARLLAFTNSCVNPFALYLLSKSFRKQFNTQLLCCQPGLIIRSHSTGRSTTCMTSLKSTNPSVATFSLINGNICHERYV
Test [7] deals with T3, hGRPR. Description: Stimulation of [3H]IP generation.
Test [8] has as its target T3, hGRPR. Description: Stimulation of [3H]IP generation. As to conditions: for fold less potent than peptide #1 at activating PLC: hGRPR containing HuTu-80 and Balb cells.
Test [9] has as its target T1, hBRS-3. As to conditions: for affinities from binding studies for the hBRS-3 receptor, range over 3 cell lines: 3 hBRS-3 cell lines (NC-N417, Balb, H1299).
In test [10] the target is T1, hBRS-3. The conditions noted are these: binding; hBRS-3 containing cells (H1299, Balb; Tables 2 and 3).
Test [11] concerns the target T2, hNMBR. Description: biochemical. The conditions noted are these: IC50 (nM) hNMBR/H1299, half-maximal inhibition of binding.
Test [12] addresses T2, hNMBR. As to conditions: binding; hNMBR/H1299 and hNMBR/Balb cells.
Test [13] has as its target T2, hNMBR. Description: Stimulation of [3H]IP generation. The conditions noted are these: for fold less potent than peptide #1 at activating PLC: hNMBR containing H1299 and Balb cells.

T1 sequence (P32247 whole entry): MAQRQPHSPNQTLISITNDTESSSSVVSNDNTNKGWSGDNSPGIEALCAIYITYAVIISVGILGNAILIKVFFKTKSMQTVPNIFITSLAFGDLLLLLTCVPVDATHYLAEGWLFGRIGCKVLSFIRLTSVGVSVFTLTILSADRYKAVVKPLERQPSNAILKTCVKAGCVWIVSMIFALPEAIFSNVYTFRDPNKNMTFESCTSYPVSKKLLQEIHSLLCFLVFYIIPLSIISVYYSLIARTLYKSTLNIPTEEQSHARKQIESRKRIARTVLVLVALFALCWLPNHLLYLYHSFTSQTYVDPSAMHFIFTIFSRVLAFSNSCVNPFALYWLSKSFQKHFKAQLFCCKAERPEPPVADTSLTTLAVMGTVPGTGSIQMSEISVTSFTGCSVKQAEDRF

With `CCCC[C@H](NC(=O)[C@H](Cc1ccccc1)NC(=O)[C@H](Cc1c[nH]cn1)NC(=O)C[C@@H](NC(=O)[C@@H](NC(=O)[C@H](C)NC(=O)[C@H](Cc1c[nH]c2ccccc12)NC(=O)[C@H](CCC(N)=O)NC(=O)[C@H](N)Cc1ccc(O)cc1)C(C)C)c1ccccc1)C(N)=O` [Peptide 2, [DTyr^6, (R)-Apa^11, Phe^13, Nle^14]Bn(6-14)] (H-[dY]QWAV[β3hPhg]HF[Nle]-NH2), the results for the IC50 at hBRS-3 [1], against hNMBR [3] and at hNMBR [11] were 4.3 ± 0.2 nM, 158 ± 8 nM and 66.1 ± 3.4 nM, respectively. Also, the concentration giving a half-maximal response (EC50) – broadly, the concentration that produces a half-maximal response – on hNMBR [2] was 38 ± 1.2 nM; on hGRPR [7], 58 ± 2 nM; at hGRPR [8], 318 ± 25 nM; at hNMBR [13], 195 ± 11 nM. Moreover, the “selectivity for hBRS-3 expressed in Balb cells over hGRPR in the same cells” value at hBRS-3 [4] was found to be 32 fold. For the same compound, on hBRS-3 [4], the “selectivity for hBRS-3 expressed in Balb cells than hNMBR in the same cells” value came to 47 fold. Besides, the “selectivity (PLC potency) for hBRS-3 cells over hGRPR containing cells” value at hBRS-3 [5] (Tables 2-4) was 10 to 26 fold. The “agonist efficacy for [3H]IP generation (full/partial agonist)” value at hBRS-3 [5] was “none functioning as a partial agonist”. For the same compound, the “fold less potent than peptide #1 at activating PLC” value on hBRS-3 [5] was 4–14 fold; on hGRPR [8], 10–25 fold; at hNMBR [13], more than 250 fold. For the same compound, the “fold lower affinity than GRP or peptide #1” value on hGRPR [6] is on record as 475 fold. The “affinities from binding studies for the hBRS-3 receptor, range over 3 cell lines” value at hBRS-3 [9] was “nM affinities”. For the same compound, the “selectivity for hBRS-3 in NCI-N417 cell over hGRPR natively expressed in Hutu cells” value on hBRS-3 [9] (binding affinities) was found to be 13 fold. The “selectivity for hBRS-3 natively expressed in NCI-N417 cells than hNMBR expressed in NCI-H1299 cells” value at hBRS-3 [9] (binding affinities) stood at 15 fold. Besides, the “fold lower affinity than the universal ligand, peptide #1” value on hBRS-3 [9] (binding, native hBRS-3 in NCI-N417 cells) amounted to 3 fold. For the same compound, the “selectivity for hBRS-3 over hGRPR in the different cells based on binding affinities” value on hBRS-3 [9] (range over cells) was 13–32 fold. For the same compound, at hBRS-3 [9] (range over cells), the “selectivity for hBRS-3 over the hNMBR based on binding affinities” value was in the range of 15 to 46 fold. The “fold lower affinity than peptide #1, range over hBRS-3 cell lines” value at hBRS-3 [10] is reported as 4–49 fold. For the same compound, the “fold lower affinity than NMB (and peptide #1)” value at hNMBR [12] is reported as 200–1100 fold.
Regarding `CCCC[C@H](NC(=O)[C@H](Cc1ccccc1)NC(=O)[C@H](Cc1c[nH]cn1)NC(=O)C[C@@H](NC(=O)[C@@H](NC(=O)[C@H](C)NC(=O)[C@H](Cc1c[nH]c2ccccc12)NC(=O)[C@H](CCC(N)=O)NC(=O)[C@H](N)Cc1ccc(O)cc1)C(C)C)c1ccc(Cl)cc1)C(N)=O` [Peptide 3, [DTyr^6, (R)-Apa^11-4Cl, Phe^13, Nle^14]Bn(6-14)] (H-[dY]QWAV[X1]HF[Nle]-NH2), the “agonist efficacy for [3H]IP generation (full/partial agonist)” value at hBRS-3 [5] is “none functioning as a partial agonist”. In addition, the “fold less potent than peptide #1 at activating PLC” value on hBRS-3 [5] is 3.3–10 fold; at hGRPR [8] it was 123–270 fold; at hNMBR [13], more than 1000 fold. On hGRPR [6], the “fold lower affinity than GRP or peptide #1” value was 750 fold. Further, on hBRS-3 [9], the “affinities from binding studies for the hBRS-3 receptor, range over 3 cell lines” value was “nM affinities”. Further, the “fold lower affinity than peptide #1, range over hBRS-3 cell lines” value at hBRS-3 [10] is given as 2.5–17 fold. Moreover, the “fold lower affinity than NMB (and peptide #1)” value on hNMBR [12] is on record as 745–5900 fold.
